Results from patent US9005969B2, “Generation of novel bone forming cells (monoosteophils) from LL-37 treated monocytes” (City of Hope, priority 2010, dated 2015).

How the values were obtained:
monocytes [1] = assay: Cytokine multiplex analysis of supernatants of differentiated monocytes; assay type: cell-based, human; set-up: GM-CSF release / MIP-1α release / MIP-1β release / MIG release / RANTES release / MCP-1 release / IL-2R release / VEGF release / G-CSF release / HGF release / FGF-Basic release / IL-4 release / IL-7 release / IFN-α release / IFN-γ release: unit not given here; settings: for FGF-Basic release / G-CSF release / GM-CSF release / HGF release / IFN-α release / IFN-γ release / IL-2R release / IL-4 release / IL-7 release / MCP-1 release / MIG release / MIP-1α release / MIP-1β release / RANTES release / VEGF release: supernatant, monocytes differentiated 6 days, Mean ± SEM
Excerpt: (§1) This study was approved by the Institutional Human Subject's Review Board (City of Hope National Medical Center). Peripheral blood mononuclear cells (PBMCs) were isolated from citrated blood by centrifugation over Ficoll-Paque Plus (GE healthcare biosciences, Pittsburgh, Pa., USA) density gradient. Monocytes were separated using EasySep® Human Monocyte Enrichment Kit (StemCell Technologies Inc, Vancouver, Canada) from PBMCs. The purified monocytes were stained with anti-CD14-FITC and checked by using flow cytometry FACSCanton II. Monocytes with >95% purity were suspended at 1×10^6 cells/mL in RPMI 1640 medium supplement with 10% FBS (FBS contained <5 pg/100 mL LPS).
(§2) After isolation of monocytes as described in the examples above, monocytes were treated with serial dose of LL-37 (0.625 μM, 1.25 μM, 2.5 μM, 5 μM, or 10 μM) for differentiation for 3 days, 6 days, 14 days or more. After incubating for 6 days, cultures were fed every 2 days by removing half of the supernatant and adding fresh medium. For macrophage differentiation, monocytes were treated with medium only (Falzoni et al. 1995), with 100 ng/mL LPS (Palucka et al. 1999), 10 ng/mL GM-CSF (macrophage 1, Mφ1), or 50 ng/mL M-CSF (macrophage 2, Mφ2) for 6 days (Verreck et al. 2004). Monocyte-derived DCs were generated with 1,000 U/mL GM-CSF and 500 units/mL IL-4 (Verreck et al. 2004) or GM-CSF and 1000 U/mL IFNα (Tosello et al. 2009). Osteoclasts were differentiated from monocytes in the presence of RANKL and M-CSF (both at 25 ng/mL) (Sorensen et al. 2007).
Fresh monocytes were plated at 1×10^6 cells/mL in RPMI 1640 medium containing 10% FBS in 48-well plates and incubated with medium only, LL-37, LPS, GM-CSF, M-CSF, M-CSF/RANKL for 6 days, or/and 14 days and 21 days. Supernatant was collected and analyzed using the Human Cytokine 30-Plex antibody bead kit from Biosource International Inc., including IL-1-β, IL-1 ra, IL-2, IL-2R, IL-4, IL-5, IL-6, IL-7, IL-8, IL-10, IL-12, IL-13, IL-15, IL-17, TNFα, IFNα, IFNγ, G-CSF, GM-CSF, MIP-1α, MIP-1β, MIG, RANTES, eotaxin, MCP-1, IP-10, VEGF, HGF, FGF-basic, and […]. Cytokine concentrations were calculated using Bio-Plex Manager 3.0 software with an eight-parameter, curve-fitting algorithm applied for standard curve calculations (Zhang et al. 2008b).

monocytes [2] = assay: Monocyte differentiation and survival (morphology, cell number); assay type: cell-based, human
Excerpt: as §1
Negatively isolated monocytes at the concentration of 1×10^6/mL were incubated in […] medium with 10% FBS in the presence or absence of LL-37. […] The maximum effect occurred at the dose of 5 μM LL-37 after which higher doses (≧10 μM) led to decreased cell numbers due to toxicity of LL-37 >10 μM (Zhang et al. 2008a; Johansson et al. 1998). After 14 days, the cell number of untreated controls decreased further, but the LL-37-differentiated monocytes survived with an apparent further increase in the diameter of the round adherent cells. […] There was no evidence of cell-cell fusion in the creation of giant cells. Together these analyses indicate that LL-37 can progressively differentiate monocytes into large round adherent cells at early times with giant cells and irregular shaped cells appearing at later times.
as §2
Monocytes were plated in culture media and treated with LL-37 (dose shown in the figures), LPS (100 ng/mL), GM-CSF (10 ng/mL), M-CSF (50 ng/mL), GM-CSF (1,000 U/mL)/IL-4 (500 units/mL), GM-CSF (1,000 U/mL)/IFNα (1,000 U/mL), or MCSF/RANKL (both at 25 ng/mL) and photographed with the Leica DMI 3000B (Leica Microsystems Inc, Bonnockburn, Ill. 60015) inverted microscope.

monocytes [3] = assay: Bone resorption assay on BioCoat Osteologic Discs (phase contrast, SEM, von Kossa); assay type: cell-based, human
Procedure: The resorbing activity was evaluated by using BioCoat™ Osteologic™ Discs purchased from BD Biosciences as a mineral matter in 24-well plate. […] The plates were washed by rinsing distilled water and pit formation was observed by light microscopy (Yuasa et al. 2007) and scanning electron microscopy (SEM). […]
BioCoat™ Osteologic™ Discs fixed in 2.5% glutaraldehyde in 0.1 M phosphate buffer, pH 7.2 (buffer A) for 1 hour from bone resorption assay were washed three times in buffer A, postfixed with 1% osmium tetroxide in buffer A, then dehydrated in graded ethanol. The 100% ethanol solution was then replaced by propylene oxide, and the cells were embedded in Eponate. Thin sections were stained with uranyl acetate and lead citrate and examined with a FEI TECNAI G2 electron microscope.
Discs were photographed using phase contrast microscopy (magnification 200×).

monocytes [4] = assay: Phagocytosis of fluorescent labeled latex beads; assay type: cell-based, human; settings: 6-day differentiated cells, beads 1:500, 1 hour at 37° C.
Procedure: 6-day LL-37-, medium-, LPS-, GM-CSF-, and M-CSF-differentiated monocytes (1×10^6/mL) in tissue culture medium supplemented with 10% FBS in a 24-well plate were mixed with fluorescent labeled latex beads at a multiplicity ratio of 1:500, and incubated for 1 hour at 37° C. After being washed three times, cells were analyzed using FACSCanton II and Flowjo software.

monocytes [5] = assay: Flow cytometry of cell surface markers; assay type: cell-based, human; settings: 6 days
Excerpt: For cell surface staining, cells were washed with PBS, blocked with 10% human serum in PBS, stained with isotype controls and antibodies described in the figures, washed 3 times with 1% BSA PBS, and analyzed with a FACSCanton II. For intracellular staining, cells were washed with PBS, fixed with 1% paraformaldehyde in PBS, permeabilized in PBS buffer containing 0.1% saponin (Sigma-Aldrich) and 2% BSA, and stained with primary isotype controls and antibodies shown in the figures. After washing with PBS containing 1% BSA and 0.1% saponin, cells were stained with secondary Alexa 488 conjugated antibodies. Stained cells were assessed with a FACSCanton II cytometer, and analyzed using Flowjo software.

monocytes [6] = settings: cited from earlier work

Row | Molecule | FGF-Basic release (monocytes [1]) | G-CSF release (monocytes [1]) | GM-CSF release (monocytes [1]) | HGF release (monocytes [1]) | IFN-α release (monocytes [1]) | IFN-γ release (monocytes [1]) | IL-2R release (monocytes [1]) | IL-4 release (monocytes [1]) | IL-7 release (monocytes [1]) | MCP-1 release (monocytes [1]) | MIG release (monocytes [1]) | MIP-1α release (monocytes [1]) | MIP-1β release (monocytes [1]) | RANTES release (monocytes [1]) | VEGF release (monocytes [1]) | other results
1 | LL-37 | 10.28 ± 0.66 | 51.79 ± 3.38 | 3.96 ± 0.30 | 772.94 ± 126.71 | 9.93 ± 0.14 | 12.13 ± 0.88 | 32.38 ± 7.04 | 7.16 ± 0.59 | 11.93 ± 1.96 | 7720.3 ± 972.2 | 7.16 ± 1.31 | 53.17 ± 12.97 | 72.41 ± 9.86 | 10.24 ± 3.87 | 3.88 ± 0.41 | IL-1ra, IL-10, IL-12, IP-10, GM-CSF production in response to LPS (monocytes [1]; 6-day cells, 100 ng/mL LPS 18 hours, versus M-CSF/RANKL-differentiated monocytes): increased production; IL-1ra release versus other macrophage lineages (monocytes [1]; 6 days): highest levels; IL-1β release versus other macrophage lineages (monocytes [1]; 6 days): lowest level; IL-6 release versus macrophages generated by the other methods (monocytes [1]; 6 days): significantly less; IP-10 release versus macrophages generated by the other methods (monocytes [1]; 6 days): increased; IL-1ra release versus osteoclasts (monocytes [1]; all time points analyzed): higher levels; IL-1β, IL-6, MCP-1 release versus osteoclasts (monocytes [1]; all time points analyzed): lower levels; doses that led to decreased cell numbers (monocytes [2]): ≥ 10 µM; cell number versus untreated controls (monocytes [2]; 5 μM, 6 days): significantly higher than untreated controls; cell morphology (monocytes [2]; 6 days of treatment): differentiated into large round adherent cells; survival in terms of cell numbers (monocytes [2]; after 28 days, versus M-CSF/RANKL-derived osteoclasts): survive better than M-CSF/RANKL-derived osteoclasts; dose of maximum effect (monocytes [2]; monocyte differentiation and cell number): 5 µM; structures formed on Osteologic Discs (monocytes [3]; 3 weeks, cells removed by bleach, LL-37 5 μM, M-CSF/RANKL both 25 ng/mL): formed refractile specks on the discs instead of classical absorption pits; von Kossa staining of granules (mineralization) (monocytes [3]; 5 weeks of co-culture): positive von Kossa staining; phagocytic function (monocytes [4]): retain their phagocytic function; expression of CD163, DC-SIGN, CD14 versus other macrophage lineages (monocytes [5]): lower levels; toxicity of LL-37 (monocytes [6]): > 10 µM
2 | GM-CSF: Recombinant human GM-CSF, produces macrophage 1 (Mφ1) [reference compound] | 10.85 ± 0.22 | 74.85 ± 2.60 |  | 505.18 ± 118.32 | 14.33 ± 1.27 | 13.5 ± 0.47 | 47.16 ± 1.23 | 11.82 ± 0.98 | 26.89 ± 0.16 | 15362.1 ± 7902.6 | 17.21 ± 1.30 | 72.20 ± 6.18 | 70.42 ± 19.71 | 5.42 ± 1.85 | 15.88 ± 2.99 | 
3 | M-CSF: Recombinant human M-CSF, produces macrophage 2 (Mφ2) (protein, UniProt P09603 33-554, looked up) Macrophage colony-stimulating …: EEVSEYCSHMIGSGHLQSLQRLIDSQMETSCQITFEFVDQEQLKDPVCYLKKAFLLVQDIMEDTMRFRDNTPNAIAIVQLQELSLRLKSCFTKDYEEHDKACVRTFYETPLQLLEKVKNVFNETKNLLDKDWNIFSKNCNNSFAECSSQDVVTKPDCNCLYPKAIPSSDPASVSPHQPLAPSMAPVAGLTWEDSEGTEGSSLLPGEQPLHTVDPGSAKQRPPRSTCQSFEPPETPVVKDSTIGGSPQPRPSVGAFNPGMEDILDSAMGTNWVPEEASGEASEIPVPQGTELSPSRPGGGSMQTEPARPSNFLSASSPLPASAKGQQPADVTGTALPRVGPVRPTGQDWNHTPQKTDHPSALLRDPPEPGSPRISSLRPQGLSNPSTLSAQPQLSRSHSSGSVLPLGELEGRRSTRDRRSPAEPEGGPASEGAARPLPRFNSVPLTDTGHERQSEGSFSPQLQESVFHLLVPSVILVLLAVGGLLFYRWRRRSHQEPQRADSPLEQPEGSPLTQDDRQVELPV | 11.54 ± 0.31 | 75.71 ± 5.78 | 25.2 ± 5.51 | 664.33 ± 112.85 | 19.83 ± 1.19 | 14.67 ± 1.06 | 44.62 ± 4.89 | 11.07 ± 0.95 | 24.83 ± 1.68 | 34236.5 ± 1606.8 | 15.39 ± 2.01 | 41.62 ± 2.63 | 47.26 ± 1.46 | 10.19 ± 1.38 | 22.12 ± 1.39 | 
